According to the NIST ThermoML archive (doi:10.1021/je060339m):

Details: Liquid

CCCOC(C)=O [propyl ethanoate]
Details | mass density [kg/m3]
298.15 K, 100 kPa | 882
298.15 K, 1000 kPa | 882.5
298.15 K, 2000 kPa | 883.4
298.15 K, 3000 kPa | 884.3
298.15 K, 3300 kPa | 884.6
298.15 K, 5000 kPa | 886.4
298.15 K, 10000 kPa | 890.7
298.15 K, 15000 kPa | 894.8
298.15 K, 20000 kPa | 898.7
298.15 K, 25000 kPa | 902.5
298.15 K, 30000 kPa | 906.9
298.15 K, 35000 kPa | 911.7
303.15 K, 100 kPa | 876.2
303.15 K, 1000 kPa | 876.8
303.15 K, 2000 kPa | 877.7
303.15 K, 3000 kPa | 878.8
303.15 K, 3300 kPa | 879
303.15 K, 5000 kPa | 880.8
303.15 K, 10000 kPa | 885.3
303.15 K, 15000 kPa | 889.5
303.15 K, 20000 kPa | 893.5
303.15 K, 25000 kPa | 897.4
303.15 K, 30000 kPa | 902
303.15 K, 35000 kPa | 906.9
308.15 K, 100 kPa | 870.5
308.15 K, 1000 kPa | 871.2
308.15 K, 2000 kPa | 872.2
308.15 K, 3000 kPa | 873.2
308.15 K, 3300 kPa | 873.4
308.15 K, 5000 kPa | 875.3
308.15 K, 10000 kPa | 879.9
308.15 K, 15000 kPa | 884.3
308.15 K, 20000 kPa | 888.4
308.15 K, 25000 kPa | 892.4
308.15 K, 30000 kPa | 897.2
308.15 K, 35000 kPa | 902.3
313.15 K, 100 kPa | 864.9
313.15 K, 1000 kPa | 865.5
313.15 K, 2000 kPa | 866.6
313.15 K, 3000 kPa | 867.6
313.15 K, 3300 kPa | 867.9
313.15 K, 5000 kPa | 869.9
313.15 K, 10000 kPa | 874.7
313.15 K, 15000 kPa | 879.2
313.15 K, 20000 kPa | 883.5
313.15 K, 25000 kPa | 887.6
313.15 K, 30000 kPa | 892.6
313.15 K, 35000 kPa | 897.7
318.15 K, 100 kPa | 859.3
318.15 K, 1000 kPa | 859.8
318.15 K, 2000 kPa | 860.9
318.15 K, 3000 kPa | 862.1
318.15 K, 3300 kPa | 862.4
318.15 K, 5000 kPa | 864.4
318.15 K, 10000 kPa | 869.4
318.15 K, 15000 kPa | 874.1
318.15 K, 20000 kPa | 878.5
318.15 K, 25000 kPa | 882.8
318.15 K, 30000 kPa | 887.9
318.15 K, 35000 kPa | 893.2
323.15 K, 100 kPa | 853.6
323.15 K, 1000 kPa | 854.8
323.15 K, 2000 kPa | 855.8
323.15 K, 3000 kPa | 856.9
323.15 K, 3300 kPa | 857.1
323.15 K, 5000 kPa | 859
323.15 K, 10000 kPa | 864.1
323.15 K, 15000 kPa | 869
323.15 K, 20000 kPa | 873.5
323.15 K, 25000 kPa | 877.9
323.15 K, 30000 kPa | 883.2
323.15 K, 35000 kPa | 888.8
328.15 K, 100 kPa | 848
328.15 K, 1000 kPa | 848.7
328.15 K, 2000 kPa | 849.9
328.15 K, 3000 kPa | 851
328.15 K, 3300 kPa | 851.3
328.15 K, 5000 kPa | 853.7
328.15 K, 10000 kPa | 859
328.15 K, 15000 kPa | 864
328.15 K, 20000 kPa | 868.7
328.15 K, 25000 kPa | 873.3
328.15 K, 30000 kPa | 878.8
328.15 K, 35000 kPa | 884.4
333.15 K, 100 kPa | 842.5
333.15 K, 1000 kPa | 843.6
333.15 K, 2000 kPa | 844.8
333.15 K, 3000 kPa | 845.9
333.15 K, 3300 kPa | 846.2
333.15 K, 5000 kPa | 848.3
333.15 K, 10000 kPa | 853.9
333.15 K, 15000 kPa | 859
333.15 K, 20000 kPa | 863.9
333.15 K, 25000 kPa | 868.6
333.15 K, 30000 kPa | 874.3
333.15 K, 35000 kPa | 880.1
338.15 K, 100 kPa | 836.7
338.15 K, 1000 kPa | 838
338.15 K, 2000 kPa | 839.2
338.15 K, 3000 kPa | 840.5
338.15 K, 3300 kPa | 840.8
338.15 K, 5000 kPa | 842.8
338.15 K, 10000 kPa | 848.6
338.15 K, 15000 kPa | 853.9
338.15 K, 20000 kPa | 859
338.15 K, 25000 kPa | 863.8
338.15 K, 30000 kPa | 869.6
338.15 K, 35000 kPa | 875.5
343.15 K, 100 kPa | 831.2
343.15 K, 1000 kPa | 832.3
343.15 K, 2000 kPa | 833.7
343.15 K, 3000 kPa | 834.9
343.15 K, 3300 kPa | 835.3
343.15 K, 5000 kPa | 837.6
343.15 K, 10000 kPa | 843.6
343.15 K, 15000 kPa | 849.1
343.15 K, 20000 kPa | 854.3
343.15 K, 25000 kPa | 859.2
343.15 K, 30000 kPa | 865
343.15 K, 35000 kPa | 871.2
348.15 K, 100 kPa | 825.6
348.15 K, 1000 kPa | 826.8
348.15 K, 2000 kPa | 828.1
348.15 K, 3000 kPa | 829.5
348.15 K, 3300 kPa | 829.9
348.15 K, 5000 kPa | 832.2
348.15 K, 10000 kPa | 838.3
348.15 K, 15000 kPa | 844.1
348.15 K, 20000 kPa | 849.5
348.15 K, 25000 kPa | 854.5
348.15 K, 30000 kPa | 860.6
348.15 K, 35000 kPa | 866.8
353.15 K, 100 kPa | 820
353.15 K, 1000 kPa | 821.2
353.15 K, 2000 kPa | 822.6
353.15 K, 3000 kPa | 824
353.15 K, 3300 kPa | 824.4
353.15 K, 5000 kPa | 826.9
353.15 K, 10000 kPa | 833.3
353.15 K, 15000 kPa | 838.8
353.15 K, 20000 kPa | 844.8
353.15 K, 25000 kPa | 850
353.15 K, 30000 kPa | 856.4
353.15 K, 35000 kPa | 862.7
358.15 K, 100 kPa | 811.6
358.15 K, 1000 kPa | 812.9
358.15 K, 2000 kPa | 814.4
358.15 K, 3000 kPa | 815.8
358.15 K, 3300 kPa | 816.3
358.15 K, 5000 kPa | 818.6
358.15 K, 10000 kPa | 825.3
358.15 K, 15000 kPa | 831.5
358.15 K, 20000 kPa | 837.2
358.15 K, 25000 kPa | 842.8
363.15 K, 100 kPa | 804.8
363.15 K, 1000 kPa | 806.9
363.15 K, 2000 kPa | 808.4
363.15 K, 3000 kPa | 810
363.15 K, 3300 kPa | 810.4
363.15 K, 5000 kPa | 812.9
363.15 K, 10000 kPa | 819.9
363.15 K, 15000 kPa | 826.2
363.15 K, 20000 kPa | 832.1
363.15 K, 25000 kPa | 837.7
363.15 K, 30000 kPa | 844.4
368.15 K, 1000 kPa | 801
368.15 K, 2000 kPa | 802.7
368.15 K, 3000 kPa | 804.3
368.15 K, 3300 kPa | 804.8
368.15 K, 5000 kPa | 807.4
368.15 K, 10000 kPa | 814.6
368.15 K, 15000 kPa | 821.2
368.15 K, 20000 kPa | 827.3
368.15 K, 25000 kPa | 833.1
373.15 K, 1000 kPa | 795.5
373.15 K, 2000 kPa | 797.2
373.15 K, 3000 kPa | 798.9
373.15 K, 3300 kPa | 799.5
373.15 K, 5000 kPa | 802.3
373.15 K, 10000 kPa | 809.8
373.15 K, 15000 kPa | 816.6
373.15 K, 20000 kPa | 822.9
373.15 K, 25000 kPa | 828.9
378.15 K, 1000 kPa | 789.4
378.15 K, 2000 kPa | 791.3
378.15 K, 3000 kPa | 793
378.15 K, 3300 kPa | 793.6
378.15 K, 5000 kPa | 796.3
378.15 K, 10000 kPa | 803.3
378.15 K, 15000 kPa | 811.3
378.15 K, 20000 kPa | 817.7
378.15 K, 25000 kPa | 824
378.15 K, 30000 kPa | 831.2
383.15 K, 1000 kPa | 783.6
383.15 K, 2000 kPa | 785.5
383.15 K, 3000 kPa | 787.3
383.15 K, 3300 kPa | 788.2
383.15 K, 5000 kPa | 791.2
383.15 K, 10000 kPa | 799.2
383.15 K, 15000 kPa | 806.6
383.15 K, 20000 kPa | 813.2
383.15 K, 25000 kPa | 819.7
388.15 K, 1000 kPa | 777.9
388.15 K, 2000 kPa | 779.8
388.15 K, 3000 kPa | 781.6
388.15 K, 3300 kPa | 782.1
388.15 K, 5000 kPa | 785.4
388.15 K, 10000 kPa | 793.8
388.15 K, 15000 kPa | 801.5
388.15 K, 20000 kPa | 808.5
388.15 K, 25000 kPa | 815.2
388.15 K, 30000 kPa | 823.2
393.15 K, 1000 kPa | 771.8
393.15 K, 2000 kPa | 773.9
393.15 K, 3000 kPa | 775.9
393.15 K, 3300 kPa | 776.4
393.15 K, 5000 kPa | 779.7
393.15 K, 10000 kPa | 788.6
393.15 K, 15000 kPa | 796.5
393.15 K, 20000 kPa | 803.8
393.15 K, 25000 kPa | 810.7
